Like-named read-outs stand apart in the source and are kept apart here.
System: Aβ1-42 production
Assay: Cellular assay for inhibition of Aβ1-42 production (H4 APP751 SWE clone 8.20)
Format: cell-based
Conditions: H4 APP751 SWE clone 8.20 cells, 19 h incubation
In short: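 Secreted peptide was quantified with a two-antibody homogeneous format combining Wallac-labelled 565, which recognises the Aβ42 end, and APC-labelled 26D6 at 0.8 and 75 ng/well respectively. Antibodies were diluted in 40 mM Tris-HCl, pH 7.4, 0.2% BSA and left overnight at 4 °C after a 19 h compound incubation.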

[1] = 19 h, class symbols, read-out: Activity Rating (Aβ42 cellular IC50)
[2] = read-out: Activity Rating (Aβ42 cellular IC50), numeric value
[3] = 19 h, read-out: Activity Rating (Aβ42 cellular IC50), numeric value
[4] = class symbols, read-out: Activity Rating (Aβ42 cellular IC50)

Compound	IC50 [1] [nM]	IC50 [4] [nM]	other results
COc1cc(Nc2nc3c(c(N4CCN(C)CC4)n2)CCC3c2ccc(F)cc2)ccc1-n1cnc(Cl)c1 (single isomer, unassigned) [Example 30A, N-(4-(4-chloro-1H-imidazol-1-yl)-3-methoxyphenyl)-7-(4-fluorophenyl)-4-(4-methylpiperazin-1-yl)-6,7-dihydro-5H-cyclopenta[d]pyrimidin-2-amine]	10 to 100		
COc1cc(Nc2nc3c(c(N(C)C)n2)COCC3c2ccc(Cl)cc2)ccc1-n1cnc(Cl)c1 (single isomer, unassigned) [Example 65A, N^2-(4-(4-chloro-1H-imidazol-1-yl)-3-methoxyphenyl)-8-(4-chlorophenyl)-N^4,N^4-dimethyl-7,8-dihydro-5H-pyrano[4,3-d]pyrimidine-2,4-diamine]			IC50 [2]: 5.3 nM
CNc1nc(Nc2ccc(-n3cnc(Cl)c3)c(OC)c2)nc2c1COCC2c1ccccc1 (centres unmarked) [Example 51, N^2-(4-(4-chloro-1H-imidazol-1-yl)-3-methoxyphenyl)-N^4-methyl-8-phenyl-7,8-dihydro-5H-pyrano[4,3-d]pyrimidine-2,4-diamine]			IC50 [3]: 4.5 nM
CNc1nc(Nc2ccc(-n3cnc(Cl)c3)c(OC)c2)nc2c1COCC2c1ccc(Cl)cc1 (single isomer, unassigned) [Example 64B, N^2-(4-(4-chloro-1H-imidazol-1-yl)-3-methoxyphenyl)-8-(4-chlorophenyl)-N^4-methyl-7,8-dihydro-5H-pyrano[4,3-d]pyrimidine-2,4-diamine]		10 to 100	
COc1cc(Nc2nc3c(c(N4CCC(O)(C(F)(F)F)C4)n2)CCC3c2ccc(F)cc2)ccc1-n1cnc(Cl)c1 (single isomer, unassigned) [Example 28, 1-(2-(4-(4-chloro-1H-imidazol-1-yl)-3-methoxyphenylamino)-7-(4-fluorophenyl)-6,7-dihydro-5H-cyclopenta[d]pyrimidin-4-yl)-3-(trifluoromethyl)pyrrolidin-3-ol]		10 to 100	
COc1cc(Nc2nc3c(c(N4CCC(F)C4)n2)COCC3c2ccc(F)cc2)ccc1-n1cnc(Cl)c1 (stereo in doubt) [Example 57B, N-(4-(4-chloro-1H-imidazol-1-yl)-3-methoxyphenyl)-8-(4-fluorophenyl)-4-((R)-3-fluoropyrrolidin-1-yl)-7,8-dihydro-5H-pyrano[4,3-d]pyrimidin-2-amine]	100 to 1000		
COc1cc(Nc2nc3c(c(N4CC(C)(OC)C4)n2)CCC3c2ccc(F)cc2)ccc1-n1cnc(Cl)c1 (centres unmarked) [Example 191B, N-(4-(4-chloro-1H-imidazol-1-yl)-3-methoxyphenyl)-7-(4-fluorophenyl)-4-(3-methoxy-3-methylazetidin-1-yl)-6,7-dihydro-5H-cyclopenta[d]pyrimidin-2-amine]			IC50 [3]: 96 nM
COc1cc(Nc2nc3c(c(N(C)C)n2)CCC3c2ccc(OC(F)(F)F)cc2)ccc1-n1cnc(Cl)c1 (single isomer, unassigned) [Example 100A, N^2-(4-(4-chloro-1H-imidazol-1-yl)-3-methoxyphenyl)-N^4,N^4-dimethyl-7-(4-(trifluoromethoxy)phenyl)-6,7-dihydro-5H-cyclopenta[d]pyrimidine-2,4-diamine]			IC50 [3]: 4.7 nM
COc1cc(Nc2nc3c(c(N4CC(C)(OC)C4)n2)CCC3c2ccc(F)cc2)ccc1-n1cnc(C)n1 (centres unmarked) [Example 192B, 7-(4-fluorophenyl)-4-(3-methoxy-3-methylazetidin-1-yl)-N-(3-methoxy-4-(3-methyl-1H-1,2,4-triazol-1-yl)phenyl)-6,7-dihydro-5H-cyclopenta[d]pyrimidin-2-amine]			IC50 [2]: 16 nM
CCC1CCCN1c1nc(Nc2ccc(-n3cnc(Cl)c3)c(OC)c2)nc2c1CCC2c1ccc(F)cc1 (single isomer, unassigned) [Example 23B, N-(4-(4-chloro-1H-imidazol-1-yl)-3-methoxyphenyl)-4-(2-ethylpyrrolidin-1-yl)-7-(4-fluorophenyl)-6,7-dihydro-5H-cyclopenta[d]pyrimidin-2-amine]		100 to 1000	
COc1cc(Nc2nc3c(c(N4CC=C(F)CC4)n2)CCC3c2ccc(F)cc2)ccc1-n1cnc(Cl)c1 (centres unmarked) [Example 40B, N-(4-(4-chloro-1H-imidazol-1-yl)-3-methoxyphenyl)-4-(4-fluoro-5,6-dihydropyridin-1(2H)-yl)-7-(4-fluorophenyl)-6,7-dihydro-5H-cyclopenta[d]pyrimidin-2-amine]		100 to 1000	
COc1cc(Nc2nc3c(c(N(C)C)n2)CCC3c2ccc(OC(F)(F)F)cc2)ccc1-n1cnc(Cl)c1 (racemic) [Example 100, N^2-(4-(4-Chloro-1H-imidazol-1-yl)-3-methoxyphenyl)-N^4,N^4-dimethyl-7-(4-(trifluoromethoxy)phenyl)-6,7-dihydro-5H-cyclopenta[d]pyrimidine-2,4-diamine]	1.5 to 9.9		
CCNc1nc(Nc2ccc(-n3cnc(Cl)c3)c(OC)c2)nc2c1COC2c1ccc(F)cc1 (centres unmarked) [Example 75, N^2-(4-(4-chloro-1H-imidazol-1-yl)-3-methoxyphenyl)-N^4-ethyl-7-(4-fluorophenyl)-5,7-dihydrofuro[3,4-d]pyrimidine-2,4-diamine]	10 to 100		
CNc1nc(Nc2ccc(-n3ncnc3C)c(F)c2)nc2c1CCC2c1ccccc1 (single isomer, unassigned) [Example 3B, N^2-(3-fluoro-4-(5-methyl-1H-1,2,4-triazol-1-yl)phenyl)-N^4-methyl-7-phenyl-6,7-dihydro-5H-cyclopenta[d]pyrimidine-2,4-diamine]		10 to 100	
CNc1nc(Nc2ccc(-n3cnc(Cl)c3)c(OC)c2)nc2c1COCC2c1ccc(Br)cc1 (centres unmarked) [Example 72, 8-(4-bromophenyl)-N^2-(4-(4-chloro-1H-imidazol-1-yl)-3-methoxyphenyl)-N^4-methyl-7,8-dihydro-5H-pyrano[4,3-d]pyrimidine-2,4-diamine]	1.5 to 9.9		
COc1cc(Nc2nc3c(c(N4CC(F)(F)C4)n2)COCC3c2ccc(Cl)cc2)ccc1-n1cnc(Cl)c1 (single isomer, unassigned) [Example 66B, N-(4-(4-chloro-1H-imidazol-1-yl)-3-methoxyphenyl)-8-(4-chlorophenyl)-4-(3,3-difluoroazetidin-1-yl)-7,8-dihydro-5H-pyrano[4,3-d]pyrimidin-2-amine]		1.5 to 9.9	

Second part, led by results:

IC50 [1] [nM]	IC50 [4] [nM]	Compound	other results
	100 to 1000	CCN(C)c1nc(Nc2ccc(-n3cnc(Cl)c3)c(OC)c2)nc2c1CCN(S(C)(=O)=O)C2c1ccc(F)cc1 (centres unmarked) [Example 172B, N2-(4-(4-chloro-1H-imidazol-1-yl)-3-methoxyphenyl)-N4-ethyl-8-(4-fluorophenyl)-N4-methyl-7-(methylsulfonyl)-5,6,7,8-tetrahydropyrido[3,4-d]pyrimidine-2,4-diamine]	
10 to 100		COc1cc(Nc2nc3c(c(N4CC(F)(F)C4)n2)CNCC3c2ccc(F)cc2)ccc1-n1cnc(Cl)c1 (centres unmarked) [Example 162, N-(4-(4-chloro-1H-imidazol-1-yl)-3-methoxyphenyl)-4-(3,3-difluoroazetidin-1-yl)-8-(4-fluorophenyl)-5,6,7,8-tetrahydropyrido[4,3-d]pyrimidin-2-amine]	
1.5 to 9.9		CCNc1nc(Nc2ccc(-n3cnc(Cl)c3)c(OC)c2)nc2c1COCC2c1ccc(C#N)cc1 (centres unmarked) [Example 121A, 4-(2-(4-(4-chloro-1H-imidazol-1-yl)-3-methoxyphenylamino)-4-(ethylamino)-7,8-dihydro-5H-pyrano[4,3-d]pyrimidin-8-yl)benzonitrile]	
	1.5 to 9.9	CNc1nc(Nc2ccc(-n3cnc(Cl)c3)c(OC)c2)nc2c1CCC2c1cc(F)cc(F)c1 (centres unmarked) [Example 102A, N^2-(4-(4-Chloro-1H-imidazol-1-yl)-3-methoxyphenyl)-7-(3,5-difluorophenyl)-N^4-methyl-6,7-dihydro-5H-cyclopenta[d]pyrimidine-2,4-diamine]	
10 to 100		CCNc1nc(Nc2ccc(-n3cnc(Cl)c3)c(OC)c2)nc2c1CN(C(=O)CN(C)C)CC2c1ccccc1 (centres unmarked) [Example 135, 1-(2-(4-(4-chloro-1H-imidazol-1-yl)-3-methoxyphenylamino)-4-(ethylamino)-8-phenyl-7,8-dihydropyrido[4,3-d]pyrimidin-6(5H)-yl)-2-(dimethylamino)ethanone]	
10 to 100		CNc1nc(Nc2ccc(-n3cnc(C)n3)c(OC)c2)nc2c1CCC2c1ccc(N(C)C)cc1 (centres unmarked) [Example 273, 7-(4-(dimethylamino)phenyl)-N2-(3-methoxy-4-(3-methyl-1H-1,2,4-triazol-1-yl)phenyl)-N4-methyl-6,7-dihydro-5H-cyclopenta[d]pyrimidine-2,4-diamine]	
	10 to 100	COc1cc(Nc2nc3c(c(N4CC(F)C4)n2)CCC3c2ccccc2)ccc1-n1cnc(Cl)c1 (centres unmarked) [Example 182, N-(4-(4-chloro-1H-imidazol-1-yl)-3-methoxyphenyl)-4-(3-fluoroazetidin-1-yl)-7-phenyl-6,7-dihydro-5H-cyclopenta[d]pyrimidin-2-amine]	
	10 to 100	COc1cc(Nc2nc3c(c(N4CC(F)(F)C4)n2)COCC3c2ccc(F)c(F)c2)ccc1-n1cnc(Cl)c1 (centres unmarked) [Example 114A, N-(4-(4-chloro-1H-imidazol-1-yl)-3-methoxyphenyl)-4-(3,3-difluoroazetidin-1-yl)-8-(3,4-difluorophenyl)-7,8-dihydro-5H-pyrano[4,3-d]pyrimidin-2-amine]	
1.5 to 9.9		COc1cc(Nc2nc(NS(C)(=O)=O)c3c(n2)C(c2ccccc2)CC3)ccc1-n1cnc(Cl)c1 (centres unmarked) [Example 211, N-(2-(4-(4-chloro-1H-imidazol-1-yl)-3-methoxyphenylamino)-7-phenyl-6,7-dihydro-5H-cyclopenta[d]pyrimidin-4-yl)-N-methanesulfonamide]	
	10 to 100	COc1cc(Nc2nc3c(c(N4CC(F)C4)n2)CCC3c2ccccc2)ccc1-n1cnc(Cl)c1 (centres unmarked) [Example 182B, N-(4-(4-chloro-1H-imidazol-1-yl)-3-methoxyphenyl)-4-(3-fluoroazetidin-1-yl)-7-phenyl-6,7-dihydro-5H-cyclopenta[d]pyrimidin-2-amine]	

— patent publication US8637525B2, “Compounds for the reduction of beta-amyloid production” (Bristol-Myers Squibb Company, priority 2009, dated 2014)
